Type in all cases: cell-based, human
In assay [1] the test system is control fibroblasts. As to the kind of experiment: Cell viability: LDH release (CytoTox-ONE) after paraquat exposure. The conditions noted are these: controls, 300 uM PQ, 48 hrs. As to the method: (§1) Cell viability was assessed using the CytoTox-ONE Homogeneous Membrane integrity Assay kit (Cat. No 07890, Promega, Madison, Wis.), which is a fluorescent measure of lactate dehydrogenase (LDH) released from cells with a damaged membrane by conversion of resazurin into resorufin. The assay was performed in a 96-well format according to the manufacturers' instructions. Briefly, 10,000 cells/well of control cells and 12,500 cells/well of SNCA-Tri fibroblasts were used for paraquat (PQ) exposure experiments; 12,500 cells/well were used in siRNA knockout experiments. Cell number was measured using WST-1 proliferation reagent (Roche, Indianapolis, Ind.) in a parallel plate.
(§2) Cells were exposed to freshly prepared PQ (N,N′-dimethyl-4,4′-bipyridinium dichloride) (Sigma, M2254) at 300 uM final concentration in culture media for 48 hours without media change prior to analysis.
Background: Release of lactate dehydrogenase indicates damage to the cell membrane.

Assay [2] concerns SNCA-Tri fibroblasts. As to the kind of experiment: Mitochondrial membrane potential (TMRM) after paraquat exposure / siRNA knockdown. The conditions noted are these: 300 uM PQ, 48 hrs. As to the method: (§3) Fibroblasts were plated in 96-well plates (6,000 cells/well in the control and 7,500 cells/well in SNCA-Tri cells) and were used for paraquat (PQ) exposure experiments. After 24 hours, cells were changed to galactose medium and cultured for another 24 hours. The mitochondrial membrane potential was measured using the fluorescent dye tetramethylrhodamine methyl ester (TMRM) (Invitrogen) at the final concentration of 150 nM. Cells were incubated for 5 minutes at 37° C. and then washed with phosphate buffered saline (PBS). To remove the plasma membrane contribution from the TMRM fluorescence, each assay was performed in parallel with 10 uM carbonyl cyanide 3-chlorophenylhydrazone (CCCP) (Sigma, St Louis, Mo.), which collapses the mitochondrial membrane potential. All data were expressed as the total TMRM fluorescence minus the CCCP-treated TMRM fluorescence. Cell number was measured using WST-1 proliferation reagent in a parallel plate, according to the manufacturer's instruction. All measurements were performed on a TECAN GENios.
as §2
(§4) The sequence of SNCA1 siRNA were used after the method of Fountaine et al, 2008. Custom siRNA (Dharmacon, Lafayette, Colo.) at a concentration of 75 nM (scrambled or α-syn targeted siRNA, SNCA1) was transfected at 90% cell confluency using […] Lipofectamine™ 2000 (Invitrogen) according to the manufacturer's instruction. Transfection efficiency was tested to be >90% with siGLO Cyclophilin B control siRNA (Dharmacon) in control fibroblasts.

Assay [3] deals with SNCA-Tri fibroblasts. As to the kind of experiment: Cellular ATP levels (ATPlite) after paraquat exposure / siRNA knockdown. As to conditions: 300 uM PQ, 48 hrs. As to the method:
(§5) Cellular adenosine triphosphate (ATP) levels were measured using the ATPlite kit (Cat. No. 6016943, Perkin Elmer, Waltham, Mass.) based on the reaction of ATP with added lucifcrase and D-luciferin, according to the manufacturer's instruction. ATP synthesis assays were performed on digitonin-treated fibroblasts. Briefly, for paraquat (PQ) exposure, cells were plated (6,000 cells/well in control cells and 7,500 cells/well in SNCA-Tri cells) for 24 hours prior to exposure to PQ.
as §2, §4
A general note: ATP-based viability assays read luminescence as a measure of living cells.

Assay [4] relates to control fibroblasts. As to the kind of experiment: Dose-response test of control fibroblasts with PQ (cell death). As to conditions: 300 uM PQ, 48 hrs. On the procedure: as §1, §2
The subject of assay [5] is control fibroblasts. As to the kind of experiment: Cellular ATP levels (ATPlite) after paraquat exposure. The conditions noted are these: controls, 300 uM PQ, 48 hrs. On the procedure:
as §5, §2

In assay [6] the test system is SNCA-Tri fibroblasts. As to the kind of experiment: Cell viability: LDH release (CytoTox-ONE) after paraquat exposure / siRNA knockdown. The conditions noted are these: 300 uM PQ, 48 hrs. As to the method:
as §1, §2, §4

Assay [7] deals with control fibroblasts. As to the kind of experiment: Mitochondrial membrane potential (TMRM) after paraquat exposure. As to conditions: controls, 300 uM PQ, 48 hrs. As to the method: as §3, §2
Assay [8] has as its system α-syn mRNA expression in SNCA-Tri fibroblasts. As to the kind of experiment: α-syn mRNA expression by qPCR after paraquat exposure. As to the method: as §2
(§6) Total RNA was extracted from fibroblasts using TRIzol® (Invitrogen). cDNA from 0.5 ug total RNA was synthesized by reverse transcriptase (iScript cDNA synthesis kit, BioRad, Hercules, Calif.). Primer sequences of SNCA are SNCA-F: AGTTGTGGCTGCTGCTGAG (SEQ ID NO:1) and SNCA-R: […] (SEQ ID NO:2) and of beta-actin are HuActin-F: […] (SEQ ID NO:3) and HuActin-R: GCATTTGCGGTGGACGAT (SEQ ID NO:4). The PCR products of SNCA and beta-actin (as internal control) were amplified using the SYBR Green PCR Master Mix (Applied Biosystems, Carlsbad, Calif.). Amplification of the PCR products was quantitatively measured by the ABI 7000 Sequence Detection System (Applied Biosystems). 2^−ΔΔCt method was used in all quantitative PCR analyses.
(Real-time PCR tracks product formation cycle by cycle.)

In assay [9] the test system is α-syn mRNA expression in control fibroblasts. The assay is described as above. As to conditions: controls, vs naive expression. As to the method: as §2, §6

Take `C[n+]1ccc(-c2cc[n+](C)cc2)cc1.[Cl-].[Cl-]` [PQ, N,N′-dimethyl-4,4′-bipyridinium dichloride]: in the assay on control fibroblasts [1], the “LDH release, % change untreated vs PQ exposed” value worked out at 27%. Further, in the assay on SNCA-Tri fibroblasts [2] (61% vs 40%), the “Mitochondrial membrane potential change, fold change SNCA-Tri vs controls” value is listed as 1.5 fold. Further, the “reduction of mitochondrial membrane potential in SNCA-Tri compared to controls after PQ exposure” value with SNCA-Tri fibroblasts [2] (SNCA-Tri vs controls) is listed as 51%. Moreover, the “Mitochondrial membrane potential decrease, untreated vs PQ exposed” value with SNCA-Tri fibroblasts [2] (SNCA-Tri) was determined as 61%; in the assay on control fibroblasts [7], 40%. In addition, the “Cellular ATP change, fold change SNCA-Tri vs controls” value in the assay with SNCA-Tri fibroblasts [3] (56% vs 33%) was found to be 1.7 fold. Besides, the “decrease of cellular ATP in SNCA-Tri compared to controls after PQ exposure” value in the assay on SNCA-Tri fibroblasts [3] (SNCA-Tri vs controls) is 59%. For the same compound, the “Cellular ATP decrease, untreated vs PQ exposed” value was 56% with SNCA-Tri fibroblasts [3] (SNCA-Tri) and 33% in the assay on control fibroblasts [5]. For the same compound, in the assay on control fibroblasts [4], the cell death result is listed as “about 25%”. Further, the “LDH release change, fold difference SNCA-Tri vs controls” value with SNCA-Tri fibroblasts [6] (42% vs 27%) was 1.6 fold. Moreover, in the assay with SNCA-Tri fibroblasts [6] (SNCA-Tri vs controls), the “increase of LDH release in SNCA-Tri compared to controls after PQ exposure” value turned out to be 46%. The “LDH release, % change (increase) untreated vs PQ exposed” value in the assay with SNCA-Tri fibroblasts [6] (SNCA-Tri) worked out at 42%. The “increase of α-syn mRNA expression after PQ exposure” value in assay [8] (SNCA-Tri, vs naive expression levels) was 7.5 fold; in [9], 2.6 fold. Further, the “α-syn mRNA, fold difference SNCA-Tri over control fibroblasts after PQ treatment” value in assay [8] (after PQ treatment) is 3.2 fold.

Values taken from US20150037257A1, “COMPOSITIONS AND METHODS FOR HIGH-THROUGHPUT SCREENING IN SKIN FIBROBLASTS WITH AN ALPHA-SYNUCLEIN TRIPLICATION” (priority 2011, published 2015).
